{"source": "paper PMC7053198", "about": "(Theranostics, 2020)", "system": "A375Pβ6 cells", "conditions": "A375Pβ6, αvβ6 positive; 72 h treatment, MTT assay; ±SD, n=3", "data": [{"smiles": "COc1cc2c(cc1OCCCCCOc1cc3c(cc1OC)C(=O)N1C=C(C)C[C@H]1C=N3)N=C[C@@H]1CC(C)=CN1C2=O", "note": "[SG3199, reference compound]", "values": [{"measurement": "IC50", "value": "0.11 ± 0.08", "unit": "nM"}]}]}
